Results from patent US8865776B2, “Use of low molecular weight amino alcohols in ophthalmic compositions” (Alcon Research, Ltd., priority 1996, dated 2014).

Test system: S. marcescens
Test: Anti-microbial activity, log reduction of survivors after inoculation
Assay type: cell-based
Details: saline solution with 1.2% amino alcohol, 0.3% sodium chloride, 0.05% disodium edetate, pH 7.4
Protocol: The antibacterial activity of the above-described saline solutions against S. marcescens was evaluated. The formulations were evaluated by inoculating 20 ml of each solution with 0.1 ml of a microbial suspension. The final concentration was 10^6 colony forming units (“CPUs”) per ml. At each time point, pour plates of SCDA were prepared containing diluted aliquots of the various test samples. The bacteria and yeast plates were incubated at 30° to 35° C. for 2 to 3 days. The mold plates were incubated at 20° to 25° C. for five days. Following the colony incubation period, the number of CFUs were counted and the log reduction of the CFUs relative to the starting amount was calculated. The anti-microbial activity of the formulations against S. marcescens and P. aeruginosa was evaluated.

CCC(N)(CO)CO [AEPD, 2-amino-2-ethyl-1,3-propanediol]
Log Reduction of Survivors (6 hours): 0.0 log | Log Reduction of Survivors (24 hours): 0.7 log

CC(C)(N)CO [AMP, 2-amino-2-methyl-1-propanol]
Log Reduction of Survivors (6 hours): 0.1 log | Log Reduction of Survivors (24 hours): 0.5 log

CC(N)(CO)CO [AMPD, 2-amino-2-methyl-1,3-propanediol]
Log Reduction of Survivors (6 hours): 0.0 log | Log Reduction of Survivors (24 hours): 0.0 log

OCCN1CCN(CCO)CC1 [BHP, 1,4-Bis(2-hydroxyethyl)-piperazine, reference compound]
Log Reduction of Survivors (6 hours): 0.1 log | Log Reduction of Survivors (24 hours): 0.1 log

CN(C)C(C)(C)CO [DMAMP, 2-dimethylamino-methyl-1-propanol]
Log Reduction of Survivors (6 hours): 0.0 log | Log Reduction of Survivors (24 hours): 0.7 log
